Columns and labels:
KOR [1] = molecular target: T1, KOR (Homo sapiens, UniProt P41145); assay: biochemical; type: binding
DOR [2] = molecular target: T2, DOR (Homo sapiens, UniProt P41143); assay: Radioligand binding at DOR
hDAT [3] = molecular target: T3, hDAT (Homo sapiens, UniProt Q01959); assay: Radioligand binding at DAT; details: for DAT, inhibition, % of control at 10 μM: [3H]WIN35428, negative = enhanced radioligand binding
rat kidney TSPO = rat kidney TSPO (Rattus norvegicus, UniProt P16257); assay: Radioligand binding at TSPO
rat kidney TSPO, sequence (P16257 whole entry): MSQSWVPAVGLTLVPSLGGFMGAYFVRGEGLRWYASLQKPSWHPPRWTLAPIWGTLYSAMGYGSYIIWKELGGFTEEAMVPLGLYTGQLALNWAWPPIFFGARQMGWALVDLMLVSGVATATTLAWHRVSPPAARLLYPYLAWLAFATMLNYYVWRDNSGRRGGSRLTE

hDAT [4] = molecular target: T3, hDAT; assay: hDAT binding modulation, [3H]mazindol 119
Human plasma stability = type: in vitro ADME; details: after 2 h
hSERT = hSERT (Homo sapiens, UniProt P31645); assay: hSERT binding and serotonin uptake
CYP2D6 = CYP2D6 (Homo sapiens, UniProt P10635); assay: Cytochrome P450 inhibition in human microsomes, 2D6; type: in vitro ADME; details: CYP450 2D6 IC50, human microsomes
KOR [5] = molecular target: T1, KOR; assay: β-arrestin-recruitment TANGO assay at KOR; type: cell-based; details: 10 μM; vs naloxone 121 = 100% inhibition; agonist 109 (3 nM)
hNET [6] = molecular target: T4, hNET (Homo sapiens, UniProt P23975); assay: hNET binding, [125I]118
T4 sequence (P23975 whole entry): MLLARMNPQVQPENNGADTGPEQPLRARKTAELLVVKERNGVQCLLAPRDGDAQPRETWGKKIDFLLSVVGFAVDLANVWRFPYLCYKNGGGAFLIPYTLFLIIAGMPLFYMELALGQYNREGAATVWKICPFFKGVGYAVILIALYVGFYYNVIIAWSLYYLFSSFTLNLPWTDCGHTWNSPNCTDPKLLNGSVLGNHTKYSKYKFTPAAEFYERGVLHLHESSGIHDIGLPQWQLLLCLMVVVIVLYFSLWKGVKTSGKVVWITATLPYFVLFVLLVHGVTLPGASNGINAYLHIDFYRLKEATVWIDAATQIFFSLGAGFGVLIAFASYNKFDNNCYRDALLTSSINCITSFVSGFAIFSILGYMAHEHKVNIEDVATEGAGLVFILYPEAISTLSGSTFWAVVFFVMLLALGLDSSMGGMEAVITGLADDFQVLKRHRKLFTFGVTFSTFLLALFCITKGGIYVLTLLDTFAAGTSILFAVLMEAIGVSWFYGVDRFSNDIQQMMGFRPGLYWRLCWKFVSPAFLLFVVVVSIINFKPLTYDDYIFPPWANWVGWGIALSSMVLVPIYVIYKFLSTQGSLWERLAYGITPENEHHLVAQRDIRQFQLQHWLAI

MOR [7] = molecular target: T5, MOR (Homo sapiens, UniProt P35372); assay: biochemical; type: binding
T5 sequence (P35372 whole entry): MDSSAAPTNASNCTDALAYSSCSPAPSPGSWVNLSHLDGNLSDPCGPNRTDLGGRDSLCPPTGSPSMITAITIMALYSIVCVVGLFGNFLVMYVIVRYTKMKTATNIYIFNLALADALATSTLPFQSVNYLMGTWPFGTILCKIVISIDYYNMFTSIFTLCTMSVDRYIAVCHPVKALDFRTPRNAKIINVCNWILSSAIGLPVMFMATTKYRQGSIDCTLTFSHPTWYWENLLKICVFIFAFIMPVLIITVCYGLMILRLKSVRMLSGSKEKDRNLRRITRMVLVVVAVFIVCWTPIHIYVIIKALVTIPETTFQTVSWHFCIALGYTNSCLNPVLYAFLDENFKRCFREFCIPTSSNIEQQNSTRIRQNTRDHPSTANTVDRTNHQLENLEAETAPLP

[8] = Pharmacokinetics after intravenous and oral administration; type: in vivo, male Sprague Dawley rats
KOR [9] = molecular target: T1, KOR; type: cell-based; details: antagonism of 1 μM U69593 98
DOR [10] = molecular target: T2, DOR; assay: β-arrestin-recruitment TANGO assay at DOR; type: cell-based; details: 10 μM
mA1AR = molecular target: T6, mA1AR (Mus musculus, UniProt Q60612); assay: mA1AR binding; details: read-out: mA1AR binding, % inhibition at 10 μM
T6 sequence (Q60612 1-326): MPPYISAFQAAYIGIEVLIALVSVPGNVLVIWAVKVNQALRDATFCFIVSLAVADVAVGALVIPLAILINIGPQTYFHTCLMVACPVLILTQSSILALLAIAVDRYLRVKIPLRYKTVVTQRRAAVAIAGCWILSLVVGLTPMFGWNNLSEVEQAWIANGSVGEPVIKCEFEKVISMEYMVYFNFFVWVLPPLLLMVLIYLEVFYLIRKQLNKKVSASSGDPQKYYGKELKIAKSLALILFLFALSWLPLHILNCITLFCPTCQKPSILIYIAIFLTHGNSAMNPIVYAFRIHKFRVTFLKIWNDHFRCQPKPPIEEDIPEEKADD

mA2AAR = mA2AAR (Mus musculus, UniProt Q60613); assay: mA2AAR binding; details: read-out: mA2AAR binding, % inhibition at 10 μM
mA2AAR, sequence (Q60613 whole entry): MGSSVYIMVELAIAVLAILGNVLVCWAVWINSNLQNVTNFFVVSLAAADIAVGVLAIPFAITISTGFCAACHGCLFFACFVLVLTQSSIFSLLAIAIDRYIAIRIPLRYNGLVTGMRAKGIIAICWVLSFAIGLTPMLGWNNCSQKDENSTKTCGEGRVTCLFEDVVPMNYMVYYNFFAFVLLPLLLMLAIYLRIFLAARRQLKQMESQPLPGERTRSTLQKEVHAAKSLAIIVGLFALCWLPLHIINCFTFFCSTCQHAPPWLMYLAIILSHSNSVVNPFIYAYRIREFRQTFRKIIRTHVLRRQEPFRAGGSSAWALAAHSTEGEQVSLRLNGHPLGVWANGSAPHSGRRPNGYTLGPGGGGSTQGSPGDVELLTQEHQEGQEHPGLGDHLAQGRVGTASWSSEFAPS

hA3AR [11] = molecular target: T7, hA3AR (Homo sapiens, UniProt P0DMS8); assay: hA3AR-mediated inhibition of cAMP formation; type: cell-based; details: read-out: maximal efficacy, hA3AR-mediated inhibition of cAMP formation
T7 sequence (P0DMS8 1-318): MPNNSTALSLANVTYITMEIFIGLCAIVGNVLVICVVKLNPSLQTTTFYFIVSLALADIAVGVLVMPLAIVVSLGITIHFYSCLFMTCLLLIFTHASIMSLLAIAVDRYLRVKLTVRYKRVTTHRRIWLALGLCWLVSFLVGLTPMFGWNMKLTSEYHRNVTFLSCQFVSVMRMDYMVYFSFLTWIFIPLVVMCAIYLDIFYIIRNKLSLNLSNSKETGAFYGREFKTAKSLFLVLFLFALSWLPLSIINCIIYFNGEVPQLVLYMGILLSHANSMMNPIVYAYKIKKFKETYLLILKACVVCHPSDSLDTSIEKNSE

CYP3A4 = CYP3A4 (Homo sapiens, UniProt P08684); assay: Cytochrome P450 inhibition in human microsomes, 3A4; type: in vitro ADME; details: CYP450 3A4 IC50, human microsomes
CYP3A4, sequence (P08684 whole entry): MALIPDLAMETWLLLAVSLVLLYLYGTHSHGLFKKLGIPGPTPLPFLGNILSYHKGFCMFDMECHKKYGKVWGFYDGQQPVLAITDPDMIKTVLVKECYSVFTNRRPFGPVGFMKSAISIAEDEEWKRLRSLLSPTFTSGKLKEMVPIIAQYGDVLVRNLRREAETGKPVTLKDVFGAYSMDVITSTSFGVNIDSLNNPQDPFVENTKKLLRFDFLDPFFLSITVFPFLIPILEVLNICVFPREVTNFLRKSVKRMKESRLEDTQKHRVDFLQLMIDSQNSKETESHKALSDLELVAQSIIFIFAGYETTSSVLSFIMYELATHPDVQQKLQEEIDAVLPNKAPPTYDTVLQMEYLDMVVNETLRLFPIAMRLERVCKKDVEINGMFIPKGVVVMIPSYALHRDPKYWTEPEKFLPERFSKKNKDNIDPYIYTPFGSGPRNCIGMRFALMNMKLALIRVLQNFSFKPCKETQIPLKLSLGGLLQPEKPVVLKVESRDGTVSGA

CACO-2 cell permeability = type: in vitro ADME; details: human, Caco-2, pH 7.4
CACO-2 cells = assay: CACO-2 cell permeability; type: in vitro ADME; details: human, Caco-2, 120 min, 10 µM, pH 7.4
hDAT [12] = molecular target: T3, hDAT; assay: [3H]dopamine uptake inhibition at hDAT; type: cell-based
hNOP = hNOP (Homo sapiens, UniProt P41146); assay: Radioligand binding at NOP
CYP2C9 = CYP2C9 (Homo sapiens, UniProt P11712); assay: Cytochrome P450 inhibition in human microsomes, 2C9; type: in vitro ADME; details: CYP450 2C9 IC50, human microsomes
CYP2C9, sequence (P11712 whole entry): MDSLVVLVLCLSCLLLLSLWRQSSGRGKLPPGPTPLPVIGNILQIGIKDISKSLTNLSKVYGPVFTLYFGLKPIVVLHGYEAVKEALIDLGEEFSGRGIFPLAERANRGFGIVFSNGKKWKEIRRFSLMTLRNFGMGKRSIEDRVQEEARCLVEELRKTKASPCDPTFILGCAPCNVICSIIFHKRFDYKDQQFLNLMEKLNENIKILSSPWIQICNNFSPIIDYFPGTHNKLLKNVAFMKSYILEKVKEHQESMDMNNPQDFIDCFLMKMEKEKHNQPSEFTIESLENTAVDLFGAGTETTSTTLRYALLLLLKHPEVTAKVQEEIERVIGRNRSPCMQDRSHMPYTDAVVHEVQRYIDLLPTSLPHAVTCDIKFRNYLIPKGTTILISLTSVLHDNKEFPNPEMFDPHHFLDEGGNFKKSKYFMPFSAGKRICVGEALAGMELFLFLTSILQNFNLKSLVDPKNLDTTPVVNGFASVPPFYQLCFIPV

CYP1A2 = CYP1A2 (Homo sapiens, UniProt P05177); assay: Cytochrome P450 inhibition in human microsomes, 1A2; type: in vitro ADME; details: CYP450 1A2 IC50, human microsomes
hA3AR [13] = molecular target: T7, hA3AR; assay: A3AR binding
hERG = hERG (Homo sapiens, UniProt Q12809); assay: hERG inhibition, fluorescence polarization assay; type: binding
CYP2C19 = CYP2C19 (Homo sapiens, UniProt P33261); assay: Cytochrome P450 inhibition in human microsomes, 2C19; type: in vitro ADME; details: CYP450 2C19 IC50, human microsomes
MOR [14] = molecular target: T5, MOR; assay: β-arrestin-recruitment TANGO assay at MOR; type: cell-based; details: 10 μM
hNET [15] = molecular target: T4, hNET; details: read-out: Ki, inhibition of binding of [3H]104 at NET; cited from earlier work
[16] = molecular target: human 5HT1A serotonin receptor (Homo sapiens, UniProt P08908); assay: PDSP off-target binding, 5HT1A
human 5HT1A serotonin receptor, sequence (P08908 whole entry): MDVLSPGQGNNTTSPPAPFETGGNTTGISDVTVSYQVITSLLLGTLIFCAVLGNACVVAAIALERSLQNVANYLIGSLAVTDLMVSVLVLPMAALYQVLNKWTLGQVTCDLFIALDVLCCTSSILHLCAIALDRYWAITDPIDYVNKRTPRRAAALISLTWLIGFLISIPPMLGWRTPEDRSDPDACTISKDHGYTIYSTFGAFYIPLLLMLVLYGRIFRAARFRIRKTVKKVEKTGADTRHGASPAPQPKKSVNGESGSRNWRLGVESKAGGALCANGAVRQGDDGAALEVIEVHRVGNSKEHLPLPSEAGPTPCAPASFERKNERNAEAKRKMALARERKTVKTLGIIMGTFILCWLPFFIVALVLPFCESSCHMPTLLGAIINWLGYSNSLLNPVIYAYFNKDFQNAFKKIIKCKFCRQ

hDAT [17] = molecular target: T3, hDAT; details: read-out: Ki, inhibition of binding of [3H]103 at hDAT; cited from earlier work
rat σ2 receptor = molecular target: T8, rat σ2 receptor (Rattus norvegicus, UniProt Q5U3Y7); assay: PDSP binding, σ2 receptor
T8 sequence (Q5U3Y7 1-176): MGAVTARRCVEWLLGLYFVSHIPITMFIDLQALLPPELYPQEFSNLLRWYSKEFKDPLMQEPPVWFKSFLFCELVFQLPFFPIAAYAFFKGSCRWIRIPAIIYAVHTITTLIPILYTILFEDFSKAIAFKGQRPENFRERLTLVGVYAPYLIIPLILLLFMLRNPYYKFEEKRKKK

β3 adrenergic receptor = β3 adrenergic receptor (Homo sapiens, UniProt P13945); assay: PDSP off-target binding, β3 adrenergic
β3 adrenergic receptor, sequence (P13945 whole entry): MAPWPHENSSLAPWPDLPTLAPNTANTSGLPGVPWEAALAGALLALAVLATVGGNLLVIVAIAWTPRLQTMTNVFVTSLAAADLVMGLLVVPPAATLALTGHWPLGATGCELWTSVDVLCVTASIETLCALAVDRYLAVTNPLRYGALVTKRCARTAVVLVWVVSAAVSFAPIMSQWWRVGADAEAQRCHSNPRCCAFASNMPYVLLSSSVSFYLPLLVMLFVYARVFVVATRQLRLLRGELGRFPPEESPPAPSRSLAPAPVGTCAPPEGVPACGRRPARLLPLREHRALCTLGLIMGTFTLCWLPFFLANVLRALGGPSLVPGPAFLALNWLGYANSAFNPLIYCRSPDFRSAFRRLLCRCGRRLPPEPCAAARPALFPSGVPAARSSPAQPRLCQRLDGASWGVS

[18] = male, Sprague-Dawley, rat, plasma, po

T1 sequence (P41145 whole entry): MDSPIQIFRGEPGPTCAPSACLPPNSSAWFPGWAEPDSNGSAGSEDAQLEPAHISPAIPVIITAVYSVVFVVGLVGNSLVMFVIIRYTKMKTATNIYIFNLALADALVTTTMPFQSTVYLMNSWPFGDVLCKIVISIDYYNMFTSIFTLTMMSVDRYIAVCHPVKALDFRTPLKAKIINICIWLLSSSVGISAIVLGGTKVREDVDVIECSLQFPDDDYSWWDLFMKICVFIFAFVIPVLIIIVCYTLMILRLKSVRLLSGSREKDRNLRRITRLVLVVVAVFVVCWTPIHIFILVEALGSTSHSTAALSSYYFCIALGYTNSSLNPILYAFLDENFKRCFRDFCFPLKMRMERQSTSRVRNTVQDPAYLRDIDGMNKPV
T2 sequence (P41143 whole entry): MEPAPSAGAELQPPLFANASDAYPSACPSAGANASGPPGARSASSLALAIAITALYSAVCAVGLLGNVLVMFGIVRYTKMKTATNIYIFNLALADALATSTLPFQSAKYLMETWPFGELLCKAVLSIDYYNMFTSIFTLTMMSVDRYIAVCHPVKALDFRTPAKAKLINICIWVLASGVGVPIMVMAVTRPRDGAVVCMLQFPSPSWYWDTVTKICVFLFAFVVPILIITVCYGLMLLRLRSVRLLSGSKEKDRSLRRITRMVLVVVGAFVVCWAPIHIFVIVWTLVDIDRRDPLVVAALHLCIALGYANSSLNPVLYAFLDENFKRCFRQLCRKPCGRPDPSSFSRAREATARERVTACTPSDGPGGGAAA
T3 sequence (Q01959 whole entry): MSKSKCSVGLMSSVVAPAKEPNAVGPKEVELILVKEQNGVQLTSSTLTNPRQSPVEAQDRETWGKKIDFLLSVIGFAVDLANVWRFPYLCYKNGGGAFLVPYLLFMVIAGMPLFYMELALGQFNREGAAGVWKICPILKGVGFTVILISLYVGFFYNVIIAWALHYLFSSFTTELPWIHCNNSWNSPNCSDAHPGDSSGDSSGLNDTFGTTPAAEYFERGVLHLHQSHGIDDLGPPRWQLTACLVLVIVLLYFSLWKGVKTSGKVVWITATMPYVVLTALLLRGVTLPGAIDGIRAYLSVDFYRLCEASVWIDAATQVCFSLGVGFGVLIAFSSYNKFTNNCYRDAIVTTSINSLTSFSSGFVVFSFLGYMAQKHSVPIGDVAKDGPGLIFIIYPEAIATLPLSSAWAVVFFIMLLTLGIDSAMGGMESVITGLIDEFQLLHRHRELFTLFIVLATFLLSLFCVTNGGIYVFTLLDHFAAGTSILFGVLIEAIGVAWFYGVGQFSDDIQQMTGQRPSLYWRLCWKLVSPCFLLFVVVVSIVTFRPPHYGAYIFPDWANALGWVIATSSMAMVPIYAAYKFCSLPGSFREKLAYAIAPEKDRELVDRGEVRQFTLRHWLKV

CCOC(=O)[C@@]12C[C@@H]1[C@@H](n1ccc3c(NC)nc(C#Cc4ccc(Cl)s4)nc31)[C@H](O)[C@@H]2O [compound 28, Ethyl(1S,2R,3S,4R,5S)-4-(2-((5-chlorothiophen-2-yl)ethynyl)-4-(methylamino)-7H-pyrrolo[2,3-d]pyrimidin-7-yl)-2,3-dihydroxybicyclo[3.1.0]hexane-1-carboxylate]
ligand efficiency (KOR [1]; KOR binding): 0.25 | Ki (KOR [1]; KOR, Ki, [3H]U69593, mean ± SEM, N = 2–4): 0.042 ± 0.001 µM | preference for KOR in comparison to DOR (KOR [1]; ratio of Ki): 19 fold | preference for KOR in comparison to MOR (KOR [1]; ratio of Ki): 15 fold | preference for KOR in comparison to TSPO (KOR [1]; ratio of Ki): ~20 fold | Ki (DOR [2]): 0.786 ± 0.21 µM | EC50 (hDAT [3]): > 1 µM | DAT, inhibition, % of control at 10 μM (hDAT [3]): –172 ± 57 (3) % | Ki (rat kidney TSPO; TSPO, Ki, rat TSPO, [3H]PK11195): 0.869 ± 0.16 µM | EC50 (hDAT [4]): 2.16 ± 0.55 µM | hDAT [3H]119 binding, % control binding (maximal) (hDAT [4]): 267 ± 17% | stability in human plasma, remaining (Human plasma stability): 98% | hSERT binding enhancement / serotonin uptake inhibition potency (hSERT): > 10 µM | IC50 (CYP2D6): ≥ 10 µM | KOR Antag (%) (KOR [5]): 99.6% | EC50 (hNET [6]): > 10 µM | Ki (MOR [7]): 0.637 ± 0.367 µM | MRT [8, 18]: 2.3 to 2.8 h | half-life [8, 18]: 1.6 to 2.2 h | oral bioavailability F ([8]; p.o. 1 mg/kg, 1 mg/kg): 58% | oral bioavailability F ([8]; p.o. 10 mg/kg, 10 mg/kg): 60% | βarrestin2 recruitment, Imax (% 120) (KOR [9]): 92 ± 1 % 120 | DOR Antag (%) (DOR [10]; vs naloxone 121 = 100% inhibition): 85.4% | DOR Ag (%) (DOR [10]; vs standard agonist = 100%): –0.6% | inhibition at 10 µM (mA1AR): 32% | inhibition at 10 µM (mA2AAR): 10% | Emax at 10 µM (hA3AR [11]): 0.59 ± 6.62% | IC50 (CYP3A4): ≥ 10 µM | Papp A→B at 120 min, 10 µM (CACO-2 cell permeability): 1.42 ×10⁻⁶ cm/s | Efflux Ratio (CACO-2 cells): 15.6 | IC50 (hDAT [12]): > 9.8 µM | Ki (hNOP): 3.71 ± 0.78 µM | IC50 (CYP2C9): ≥ 10 µM | IC50 (CYP1A2): ≥ 10 µM | Ki (hA3AR [13]): 0.448 ± 0.013 µM | reduction of hA3AR binding affinity by 7-deaza modification (hA3AR [13]; 28 vs 24, 54 vs 49, 55 vs 51): 31 fold | IC50 (hERG): > 30 µM | IC50 (CYP2C19): ≥ 10 µM | MOR Antag (%) (MOR [14]; vs naloxone 121 = 100% inhibition, agonist 99 (300 nM)): 96.4% | MOR Ag (%) (MOR [14]; vs standard agonist = 100%): 0.4%

CCNc1nc(C#Cc2ccccc2)nc2c1ncn2[C@H]1[C@H](O)[C@H](O)[C@@H]2C[C@@H]21 [compound 50]
DOR, inhibition of radioligand binding at 10 μM (class) (DOR [2]; Table 4): ^g (<30% inhibition of radioligand binding at 10 μM) | Ki (hNET [15]): 8.66 µM | DAT, inhibition, % of control at 10 μM (hDAT [3]): –154% | TSPO, inhibition of radioligand binding at 10 μM (class) (rat kidney TSPO; Table 4): ^f (30–50% inhibition of radioligand binding at 10 μM)

CNC(=O)[C@@]12C[C@@H]1[C@@H](n1cnc3c(NC4CC4c4ccccc4)nc(C#Cc4ccccc4)nc31)[C@H](O)[C@@H]2O (mixture of isomers) [compound 10]
DOR, inhibition of radioligand binding at 10 μM (class) (DOR [2]; Table 1): ^e (30–50% inhibition of radioligand binding at 10 μM) | TSPO, inhibition of radioligand binding at 10 μM (class) (rat kidney TSPO; Table 1): ^f (<30% inhibition of radioligand binding at 10 μM) | Ki [16]: 6.3 µM | Ki (hDAT [17]): 2.31 µM | Ki (rat σ2 receptor): 2.51 µM | Ki (β3 adrenergic receptor): 2.5 µM

Reference: publication PMC6210068 (ACS Omega, 2018)
